The IC50 is the concentration needed to halve the response being measured. What is called Ki is a measure of affinity in units of concentration, obtained from inhibition or displacement.

In the first experiment the target is T1, Cholecystokinin receptor type A (Homo sapiens, UniProt P32238).
T1 sequence (P32238 whole entry): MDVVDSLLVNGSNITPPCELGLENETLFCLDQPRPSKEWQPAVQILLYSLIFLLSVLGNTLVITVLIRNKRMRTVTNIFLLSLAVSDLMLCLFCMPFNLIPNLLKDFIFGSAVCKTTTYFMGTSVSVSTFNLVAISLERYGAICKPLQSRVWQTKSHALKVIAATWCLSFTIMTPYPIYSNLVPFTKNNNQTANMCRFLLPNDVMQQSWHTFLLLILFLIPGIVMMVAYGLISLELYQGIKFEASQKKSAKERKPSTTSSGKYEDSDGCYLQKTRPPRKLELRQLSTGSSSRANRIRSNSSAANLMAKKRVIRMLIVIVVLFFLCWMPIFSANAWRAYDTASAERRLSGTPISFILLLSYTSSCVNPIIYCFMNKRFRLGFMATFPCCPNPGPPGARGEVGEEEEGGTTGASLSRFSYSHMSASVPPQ
As to the kind of experiment: Concentration required for 50% inhibition of cholecystokinin A(CCK A).
Regarding `CCCCCN(CCCCC)C(=O)C(Cc1c[nH]c2ccccc12)NC(=O)c1ccc(Cl)c(Cl)c1` (stereo not given), half-maximal inhibition (IC50) required 190 nM. That is a sub-micromolar value.

The target of a further experiment is T2, Substance-P receptor (Homo sapiens, UniProt P25103). The experiment in a line: Tested for affinity against NK-1(Neurokinin-1) receptor expressed as pKi.
T2 sequence (P25103 whole entry): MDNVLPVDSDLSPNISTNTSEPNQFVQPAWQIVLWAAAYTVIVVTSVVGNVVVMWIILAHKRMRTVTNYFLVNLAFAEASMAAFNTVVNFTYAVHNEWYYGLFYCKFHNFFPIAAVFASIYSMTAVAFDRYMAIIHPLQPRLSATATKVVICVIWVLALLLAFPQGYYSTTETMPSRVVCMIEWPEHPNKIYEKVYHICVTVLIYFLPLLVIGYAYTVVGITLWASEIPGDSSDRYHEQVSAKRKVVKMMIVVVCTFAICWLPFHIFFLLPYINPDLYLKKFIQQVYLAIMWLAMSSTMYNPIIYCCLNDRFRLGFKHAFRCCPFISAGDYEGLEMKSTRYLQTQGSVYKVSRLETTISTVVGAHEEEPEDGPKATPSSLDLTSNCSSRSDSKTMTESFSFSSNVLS
`COC(=O)C1c2ccccc2NC(=O)CN1C(=O)N(C)Cc1cc(C(F)(F)F)cc(C(F)(F)F)c1` (stereo not given) showed an inhibition constant Ki of 316 nM. With `CC1c2ccccc2N(C)C(=O)CN1C(=O)N(C)Cc1cc(C(F)(F)F)cc(C(F)(F)F)c1` (stereo not given), the Ki was 1000 nM. Same read-out and setting: the result for `CN(Cc1cc(C(F)(F)F)cc(C(F)(F)F)c1)C(=O)N1CC(=O)Nc2ccccc2C1c1ccccc1` (stereo not given) reads 10 nM. On the same count and under the same terms, next, `CC1c2ccccc2NC(=O)CN1C(=O)N(C)Cc1cc(C(F)(F)F)cc(C(F)(F)F)c1` (stereo not given): 31.6 nM; `CC1c2ccccc2NCCN1C(=O)N(C)Cc1cc(C(F)(F)F)cc(C(F)(F)F)c1` (stereo not given): 39.8 nM; `CN(Cc1cc(C(F)(F)F)cc(C(F)(F)F)c1)C(=O)N1CC(=O)Nc2ccccc2C1CN1CCOCC1` (stereo not given): 794 nM. Compound `O=C1CN(C(=O)NCc2cc(C(F)(F)F)cc(C(F)(F)F)c2)C(c2ccccc2)c2ccccc2N1` (stereo not given) showed a Ki of 631 nM. Still for that read-out and setting: next, `CN(Cc1ccccc1)C(=O)N1CC(=O)Nc2ccccc2C1c1ccccc1` (stereo not given): 1000 nM.

For the next experiment, the target named is T2, Substance-P receptor. The experiment in a line: Concentration required for 50% inhibition of neurokinin-1 receptor.
The compound `CC(=O)NC(Cc1c[nH]c2ccccc12)C(=O)N(C)Cc1ccccc1` (stereo not given) returned an IC50 of 750 nM.

Source of the values: ChEMBL document CHEMBL1153648, “1,4-Benzodiazepin-2-one derived neurokinin-1 receptor antagonists” (Bioorg Med Chem Lett, 1997).
